Results reported in publication PMC7370300, “Deciphering the Binding of Salicylic Acid to Arabidopsis thaliana Chloroplastic GAPDH-A1” (International Journal of Molecular Sciences, 2020).

Assays:
Type in all cases: binding
[1] = molecular target: GAPA1 (chloroplastic glyceraldehyde 3-phosphate dehydrogenase A1) (Arabidopsis thaliana, UniProt P25856, W378L); assay: SPR on immobilised 3-AESA
[2] = molecular target: T1, GAPA1 (chloroplastic glyceraldehyde 3-phosphate dehydrogenase A1) (Arabidopsis thaliana, UniProt P25856); assay: SPR (Biacore […]), 3-AESA immobilised via its amino group on CM5 chip, […] Langmuir fit
T1 sequence (P25856 60-396): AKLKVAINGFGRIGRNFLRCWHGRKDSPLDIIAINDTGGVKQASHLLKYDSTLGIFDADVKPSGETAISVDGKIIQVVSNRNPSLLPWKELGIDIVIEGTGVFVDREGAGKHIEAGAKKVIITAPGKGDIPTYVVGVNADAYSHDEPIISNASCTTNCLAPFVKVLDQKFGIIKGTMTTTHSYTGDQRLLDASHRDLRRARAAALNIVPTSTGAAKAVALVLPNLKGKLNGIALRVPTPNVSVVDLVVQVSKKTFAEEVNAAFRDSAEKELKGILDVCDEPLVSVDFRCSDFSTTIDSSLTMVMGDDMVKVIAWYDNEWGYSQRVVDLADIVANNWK

[3] = molecular target: GAPA1 (chloroplastic glyceraldehyde 3-phosphate dehydrogenase A1) (Arabidopsis thaliana, UniProt P25856, N94G); assay: SPR on immobilised 3-AESA, […] protein; response diminished by […] versus WT
GAPA1 (chloroplastic glyceraldehyde 3-phosphate dehydrogenase A1) (Arabidopsis thaliana, UniProt P25856, N94G), sequence (P25856 60-396 N94G): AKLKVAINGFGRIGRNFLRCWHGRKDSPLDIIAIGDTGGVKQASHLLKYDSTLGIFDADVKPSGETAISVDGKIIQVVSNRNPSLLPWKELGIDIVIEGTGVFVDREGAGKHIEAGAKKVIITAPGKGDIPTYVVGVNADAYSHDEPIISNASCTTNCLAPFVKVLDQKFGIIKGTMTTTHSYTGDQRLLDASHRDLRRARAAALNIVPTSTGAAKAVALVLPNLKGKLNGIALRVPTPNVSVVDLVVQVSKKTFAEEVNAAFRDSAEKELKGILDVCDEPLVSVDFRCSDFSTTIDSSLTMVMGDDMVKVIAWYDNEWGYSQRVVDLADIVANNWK

[4] = molecular target: T1, GAPA1 (chloroplastic glyceraldehyde 3-phosphate dehydrogenase A1); assay: SPR competition with immobilised 3-AESA (competition seen from […] NADH)
[5] = molecular target: T1, GAPA1 (chloroplastic glyceraldehyde 3-phosphate dehydrogenase A1); assay: SPR competition with immobilised 3-AESA; also inhibits GAPDH activity of purified GAPA1 ([…] at […])

GAPA1 (chloroplastic glyceraldehyde 3-phosphate dehydrogenase A1) (Arabidopsis thaliana, UniProt P25856, W378L), sequence (P25856 60-396 W378L): as the sequence (P25856 60-396 N94G) above, with G35N, W319L counted along it

SMILES: NCCc1cccc(C(=O)O)c1O [3-AESA, 3-aminoethyl salicylic acid]
- SPR on immobilised 3-AESA [1]: the ability of GAPA1 Trp319Leu to bind 3-AESA was not affected
- Kd [2]: 16.7 ± 5.7 nM
- SPR on immobilised 3-AESA, 50 nM protein; response diminished by 66% versus WT [3]: No complete loss of ability to bind 3-AESA was observed in these mutated proteins.

SMILES: NC(=O)C1=CN([C@@H]2O[C@H](COP(=O)(O)OP(=O)(O)OC[C@H]3O[C@@H](n4cnc5c(N)ncnc54)[C@H](O)[C@@H]3O)[C@@H](O)[C@H]2O)C=CC1 [NADH]
- SPR competition with immobilised 3-AESA (competition seen from 2 μM NADH) [4]: pre-incubation of GAPA1 on ice with NADH reduced the level of GAPA1 association with immobilised 3-AESA

SMILES: O=C(O)c1ccccc1O [SA, 2-hydroxybenzoic acid]
- SPR competition with immobilised 3-AESA; also inhibits GAPDH activity of purifie [5]: GAPA1 association with immobilised 3-AESA was inhibited by the presence of SA in a running buffer in a concentration-dependent manner
